The COVID Moonshot data (paper PMC11187573), “Identification of SARS-CoV-2 Mpro inhibitors through deep reinforcement learning for de novo drug design and computational chemistry approaches” (RSC Medicinal Chemistry, 2024)

Molecular target: SARS-CoV-2 Main Protease (SARS-CoV-2) (UniProt P0DTD1)

Structure (SMILES)	inhibition (20.0 µM) [%]	inhibition (50.0 µM) [%]	IC50 [µM]
COc1cc2c(cc1OC)C(C)N(C(=O)Nc1cn(C)c(=O)c3ccccc13)CC2 (configuration not stated)	51.2	5.23	–
NC(=O)C[S@@+]([O-])C(c1ccccc1)c1ccccc1 (stereo in doubt)	-1.76	-1.92	–
O=C(OCC(O)CO)c1ccccc1Nc1ccnc2cc(Cl)ccc12 (configuration not stated)	3.82	-5.01	–
Cn1c(-c2ccc(NC(=O)C3CCCCC(=O)N3)cc2)nc2ccccc21 (configuration not stated)	-3.33	-2.97	–
Cn1cc(NC(=O)NCc2ccccn2)c2ccccc2c1=O	-2.84	-6.9	–
O=C(Nc1c[nH]nc1-c1ccccn1)c1cccc2nccn12	2.59	9.01	–
O=C(Cc1cc(Cl)cc(NCc2ccc(Br)cc2)c1)Nc1cncc2ccccc12	–	–	1.43
Cn1ccc(CN(C(=O)Cc2cccnc2)c2ccc(-c3ccccn3)cc2)n1	6.62	16.1	–
Cc1cccnc1NC(=O)Nc1cn(CC(C)C)c(=O)c2ccccc12	-0.204	-1.16	–
NCc1cn(CC(=O)N(Cc2ccsc2)c2ccc(N3CCOCC3)cc2)nn1	-4.16	-1.29	–
CC(NC(=O)c1cc2n(n1)CCO2)(C(=O)Nc1cncc2ccccc12)c1ccc(Cl)c(Cl)c1 (configuration not stated)	–	–	8.52
Cc1ccc(NC(=O)Nc2cn(CC(C)C)c(=O)c3ccccc23)c(Br)c1	8.16	9.66	–
CC(C)Cn1cc(NC(=O)NCCC2=CCCCC2)c2ccccc2c1=O	25.7	0.931	–
O=C(Cn1ccnc1[N+](=O)[O-])NCc1ccccc1	-7.12	4.09	–
Cn1cc(NC(=O)N2CCN(C(=O)c3ccco3)CC2)c2ccccc2c1=O	-4.83	-2.88	–
Cc1[nH]c2ncnc(NC(=O)c3cc4ccccc4c(=O)o3)c2c1C	-7.32	-4.98	–
O=C(Nc1nncn1C1CC1)C1CCOc2c(F)cccc21 (configuration not stated)	2.37	3.56	–
COc1cc(Br)ccc1Nc1cc(Cl)cc(CC(=O)Nc2cncc3ccccc23)c1	–	–	1.39
Cn1cc(NC(=O)NCCc2ccsc2)c2ccccc2c1=O	14.5	8.36	–
CC(CCc1ccco1)NC(=O)Nc1cn(C)c(=O)c2ccccc12 (configuration not stated)	32.6	67.9	–
CC(C)Cn1cc(NC(=O)N2CCC(c3ccccc3)C2)c2ccccc2c1=O (configuration not stated)	-2.21	0.973	–

Structure (SMILES)	inhibition (20.0 µM) [%]	inhibition (50.0 µM) [%]	IC50 [µM]
COC(=O)c1sccc1NC(=O)Nc1cn(CC(C)C)c(=O)c2ccccc12	-3.98	-0.958	–
O=C(O)C12CC(CNCc3ccc4c(c3)OCC4)(C1)OC2c1ccccc1 (configuration not stated)	-3.12	-4.27	–
CC(NC(=O)CN)(C(=O)Nc1cncc2ccccc12)c1ccc(Cl)c(Cl)c1 (configuration not stated)	–	–	3.38
CN(Cc1cccc2ccccc12)c1cc(Cl)cc(CC(=O)Nc2cncc3ccccc23)c1	–	–	1.73
CC(=O)c1cccc(NC(=O)Nc2cn(C)c(=O)c3ccccc23)c1	22.4	11.9	–
COc1ccc(OC)c(CCNC(=O)Nc2cn(CC(C)C)c(=O)c3ccccc23)c1	1.12	2.5	–
O=C(N[C@@H](Cc1cc(=O)[nH]c2ccccc12)C(=O)O)c1ccc(Cl)cc1 (stereo in doubt)	1.24	-22.3	–
CC1CN(C)CCN1C(=O)CC1(C(=O)Nc2cncc3ccccc23)CCOc2ccc(Cl)cc21 (configuration not stated)	–	–	6.18
Cc1ccn2cnnc2c1NC(=O)C1CCOc2ccccc21 (configuration not stated)	-11.2	-4.74	–
CC(C)Oc1ccc(N(C(=O)c2cnc[nH]2)C(C(=O)NCCc2cccc(F)c2)c2cccnc2)cc1 (configuration not stated)	–	–	0.712
CC(C)Cn1cc(NC(=O)NC2CCCCCC2)c2ccccc2c1=O	4.79	2.3	–
CC(C)N(C(=O)Cc1c(O)c2ccccc2[nH]c1=O)C(C)C	-0.198	-0.251	–
CC(C)Cn1cc(NC(=O)NCc2ccco2)c2ccccc2c1=O	50.5	90.3	–
COC[C@]1(C(=O)Nc2cncc3ccccc23)CCOc2cc(Cl)c(Cl)cc21 (stereo in doubt)	–	–	3.22
CCN(CC)S(=O)(=O)c1ccc(NC(=O)Nc2cn(C)c(=O)c3ccccc23)cc1	0.771	-1.21	–
O=C(CC1(C(=O)Nc2cncc3ccccc23)CCOc2ccc(Cl)cc21)N1CCOCC1CC(F)F (configuration not stated)	–	–	9.84
CCOC(=O)N1CCC(NC(=O)Nc2cn(C)c(=O)c3ccccc23)CC1	-1.08	1.92	–
Nc1n[nH]c2cc(O)nc(O)c12	6.14	30.9	–
COc1ccc(NC(=O)c2ccc(C(=N)N(C)C)cc2)c(C(=O)Nc2ccc(Cl)cn2)c1	-17.3	-3.35	–
CCc1ccccc1N(CC)C(=O)Nc1cn(C)c(=O)c2ccccc12	-3.06	22.3	–
CC(C)Cn1cc(NC(=O)Nc2nc3ccccc3s2)c2ccccc2c1=O	3.79	12.2	–

Structure (SMILES)	inhibition (20.0 µM) [%]	inhibition (50.0 µM) [%]	IC50 [µM]
CC(C)CCC(=O)C[C@H]1c2ccccc2C(=O)N1c1ccc2ccc(Cl)nc2n1 (stereo in doubt)	4.26	-0.676	–
CC(C)Cn1cc(NC(=O)Nc2cccnc2)c2ccccc2c1=O	6.1	6.63	–
CC(C)Cn1cc(NC(=O)NCCN2CCOCC2)c2ccccc2c1=O	-1.08	-1.81	–
O=C(Nc1cncc2ccccc12)[C@@H]1COc2ccc(Cl)cc21 (stereo in doubt)	–	–	0.555
O=C(Cc1cc(Cl)cc(Nc2ccc(C(F)(F)F)cn2)c1)Nc1cncc2ccccc12	–	–	1.22
CC(C)(C)c1ccc(N(C(=O)c2cccnc2)C(C(=O)NCCc2cccc(F)c2)c2cccnc2)cc1 (configuration not stated)	-5.55	-6.34	–
O=C(Nc1cncc2ccccc12)[C@H]1COc2ccc(Cl)cc21 (stereo in doubt)	–	–	26.9
C[C@@H](Cn1ccc(-c2ccc(C#N)c(Cl)c2)n1)NC(=O)c1cc([C@@H](C)O)[nH]n1 (stereo in doubt)	3.16	-11.9	–
CC(C)Cn1cc(NC(=O)N2CCC(Cc3ccccc3)CC2)c2ccccc2c1=O	-4.27	3.43	–
CC(NC(=O)COc1ccc(C(N)=O)cc1)(C(=O)Nc1cncc2ccccc12)c1ccc(Cl)c(Cl)c1 (configuration not stated)	–	–	12.3
COc1cc(OC)nc(O[C@H](C(=O)O)C(OC)(c2ccccc2)c2ccccc2)n1 (stereo in doubt)	-28.4	2.42	–
CC(NC(=O)Cc1ccc(-n2cnnn2)cc1)(C(=O)Nc1cncc2ccccc12)c1ccc(Cl)c(Cl)c1 (configuration not stated)	–	–	4.64
Cn1cc(NC(=O)NCCCN2CCc3ccccc3C2)c2ccccc2c1=O	-2.25	1.39	–
CN(C)C(=O)c1cc2cnc(Nc3ccc(N4CCNCC4)cn3)nc2n1C1CCCC1	-3.84	-4.06	–
CC(C)Cn1cc(NC(=O)N2CCCN(Cc3ccccc3F)C2)c2ccccc2c1=O	-1.37	-3.78	–
O=C1CC(C(=O)Nc2cncc3ccccc23)c2cc(Cl)cc(Cl)c2N1 (configuration not stated)	–	–	3.04
Cc1[nH]c2ncnc(NC(=O)c3cccc4c3oc(=O)n4C)c2c1C	2.86	6.1	–
COc1ccc(OC)c(CNC(=O)Nc2cn(CC(C)C)c(=O)c3ccccc23)c1	18.5	0.63	–
CCCCN(CCNC(=O)Nc1cn(C)c(=O)c2ccccc12)Cc1ccco1	6.22	12.5	–
O=C(NCC1(C(=O)Nc2cncc3ccccc23)CCOc2ccc(Cl)cc21)C1COCCN1CC(F)(F)F (configuration not stated)	–	–	21.6
CCOC(=O)c1ccc(NC(=O)Nc2cn(C)c(=O)c3ccccc23)cc1	17.1	4.9	–

Structure (SMILES)	inhibition (20.0 µM) [%]	inhibition (50.0 µM) [%]	IC50 [µM]
CC(C)Cn1cc(NC(=O)NCCCN2CCCC2=O)c2ccccc2c1=O	-2.54	3.77	–
O=C(Nc1cncc2ccccc12)[C@@H]1CCNc2cc(Cl)c(Cl)cc21 (stereo in doubt)	–	–	0.05
Cn1nc(C(=O)NC(C)(C(=O)Nc2cncc3ccccc23)c2ccc(Cl)c(Cl)c2)cc1C#N (configuration not stated)	–	–	10.3
COc1ccc(NC(=O)Nc2cn(C)c(=O)c3ccccc23)c(OC)c1	7.06	17.9	–
C[C@@H]1COCCN1c1cc(C2([S@](C)(=N)=O)CC2)nc(-c2cncc3[nH]ccc23)n1 (stereo in doubt)	-0.821	3.82	–
Cc1ccncc1NC(=O)Cc1ccc2[nH]ncc2c1	-1.11	0.248	–
O=C(COc1ccccc1F)Nc1ncnc2[nH]cnc12	-6.54	-3.69	–
Cn1cc(NC(=O)N(Cc2ccco2)CC2CCCO2)c2ccccc2c1=O (configuration not stated)	2.81	0.168	–
COc1cc(Cl)c(C)cc1NC(=O)Nc1cn(CC(C)C)c(=O)c2ccccc12	5.7	9.03	–
CCN(Cc1ccc(F)cc1)c1cc(Cl)cc(CC(=O)Nc2cncc3ccccc23)c1	–	–	1.41
Cn1cc(NC(=O)NCCc2ccc(Cl)cc2)c2ccccc2c1=O	-6.47	-3.22	–
Nc1cc(C(F)(F)F)c(-c2nc(N3CCOCC3)nc(N3CCOCC3)n2)cn1	5.19	5.97	–
COc1ccc2nc(NC(=O)Nc3cn(CC(C)C)c(=O)c4ccccc34)sc2c1	21.3	17.6	–
O=C1C(Nc2ncnc3[nH]cnc23)CCN1Cc1ccccc1 (configuration not stated)	-6.26	-5.36	–
COc1cc(Cl)nc(Nc2cc(Cl)cc(CC(=O)Nc3cncc4ccccc34)c2)n1	–	–	0.504
CCn1c(=O)c(-c2cc[nH]n2)cc2c(C)nc(N)nc21	-0.487	4.38	–
COc1ccc(NC(=O)Nc2cn(C)c(=O)c3ccccc23)cc1OC	1.6	10.8	–
COC[C@@]1(C(=O)Nc2cncc3ccccc23)CCOc2cc(Cl)c(Cl)cc21 (stereo in doubt)	–	–	16.9
CC(C)Cn1cc(NC(=O)NC2CCCc3ccccc32)c2ccccc2c1=O (configuration not stated)	26.4	12.2	–
COc1cc(Cl)c(C)cc1NC(=O)Nc1cn(C)c(=O)c2ccccc12	23.7	5.81	–
COc1ccccc1OCCNC(=O)c1cc(=O)[nH]c2cccc(OC)c12	84.4	90.9	–
